From PubChem BioAssay (NCI)
“And” between values parts separate entries of the source, which are not always exact repeats. Equal values may be shown once.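 Grown in 96-well plates, cells were treated for 48 hours with each compound at five concentrations. Insufficient inhibition: endpoint recorded as highest concentration tested. Abbreviation: GI50, concentration required for 50% inhibition of growth. TGI: total growth inhibition.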

Key:
Assay in all cases: growth of human tumour cells (NCI), 48 h
[1] = test system: SN12C renal
[2] = test system: MDA-MB-435
[3] = test system: 786-0 renal
[4] = test system: IGROV1 ovarian
[5] = test system: MDA-MB-231 breast
[6] = test system: CCRF-CEM leukemia
[7] = test system: OVCAR-8 ovarian
[8] = test system: NCI-H23 lung
[9] = test system: ACHN renal
[10] = test system: K-562 leukemia

SMILES	GI50 [1] [µM]	TGI [1]	GI50 [2] [µM]	TGI [2]	GI50 [3] [µM]	TGI [3]	GI50 [4] [µM]	TGI [4]	GI50 [5] [µM]	TGI [5]	GI50 [6] [µM]	TGI [6] [µM]	GI50 [7] [µM]	TGI [7]	GI50 [8] [µM]	TGI [8] [µM]	GI50 [9] [µM]	TGI [9]	GI50 [10] [µM]	TGI [10] [µM]
CCCCCCc1cc2cc(-c3nc4ccccc4[nH]3)c(=Nc3ccccc3C)oc2cc1O	1.73	4.1 µM	2.16	5.05 µM	1.88	3.43 µM	2.07	5.89 µM	2.37	6.4 µM	2.77	9.59	2.26	6.05 µM	2.46	5.87	2.04	5.24 µM	3.1	9.29
Cc1ccc2c(c1)c1nc3cc(C)c(C)cc3nc1n2CCN(C)C	1.44	8.77 µM	1.98	4.42 µM	2.56	10.8 µM	1.93	4.77 µM	2.11	8.5 µM	2.05	10.6	1.73	8.29 µM	2.04	5.9	0.821	5.92 µM	2.6	50.3
O=C(Nc1ccc(F)cc1)Nc1ccccc1CNc1nc(Nc2ccc(OCCN3CCCC3)cc2)ncc1Cl	0.984	2.01 µM	1.03	2.28 µM	0.92	1.77 µM	5.27	13.3 µM	0.871	1.77 µM	1.6	5.93	1.83	12.2 µM	5.63	13.1	1.26	3.15 µM	1.2	3.06
O=[N+]([O-])c1ccccc1N=Nc1c(O)[nH]c2ccc(Br)cc12		44.8 µM		> 94.4 µM		40.4 µM		20.1 µM		25.2 µM		31.9		44 µM		21.3		22.9 µM		> 68.3
CCCCCc1nc2c(c3c1CCCC3)CCCC2	12.3	34.2 µM	14.4	38.7 µM	13.4	27.8 µM	5.73	26.2 µM	11	26.2 µM	11.1	43.2	10.1	36.9 µM	5.06	25.6	11.5	30.5 µM	4.76	27.9
Clc1ccc(/C=C/c2cc(N3CCOCC3)c3cc(Cl)c(Cl)cc3n2)cc1	1.54	> 100 µM	> 100	> 100 µM	1.37	> 100 µM	> 100	> 100 µM	11.1	> 100 µM	0.302	> 51	> 100	> 100 µM	> 100	> 100	> 100	> 100 µM	> 100	> 100
CC(C)c1c(C(=O)Nc2ccccc2)c(-c2ccccc2)c(-c2ccc(F)cc2)n1CC[C@@H]1CC=CC(=O)O1	1.01	3.82 µM	1.7	3.27 µM	1.68	3.56 µM	2.3	5.41 µM	2.08	4.51 µM	0.39	2.44	2.23	5.23 µM	2.03	4.04	1.57	2.92 µM	0.422	2.62
Oc1ccc(CN2CCC(N3CCOCC3)CC2)c2cccnc12	47.5	> 100 µM	36.2	> 100 µM	42.2	> 100 µM	30.9	> 100 µM	47.9	> 100 µM	23.8	> 100	34.3	> 100 µM	35	> 100	25.1	> 100 µM	28.1	> 100
N/C(=C\C(=O)n1nc(-c2ccccc2)cc1N)c1ccccc1	7.96	24.3 µM	1.19	3.56 µM	7.72	44.3 µM	6.38	61.7 µM	11.3	65.2 µM	1.34	13.5	13.8	> 100 µM	4.59	22.8	8.29	> 100 µM	2.06	24.4
Cn1ccnc1C(=O)/C=C/c1ccc(C(=O)Nc2ccc(S(F)(F)(F)(F)F)cc2)cc1	2.77	> 14.3 µM	3.04	> 14.3 µM	3.86	> 14.3 µM	3.08	> 14.3 µM	2.33	> 14.3 µM	0.738	> 14.3	2.03	> 14.3 µM	0.853	> 14.3	5.12	> 14.3 µM	0.385	> 14.3
S=C(N/N=C(/c1ccccc1)c1ccccn1)N1CCCCC1	0.171	2.18 µM and 2.68 µM		1.98 µM and 1.85 µM	< 0.001	1.87 µM and 1.88 µM	< 0.001	1.65 µM and 2.56 µM	< 0.001	2.42 µM and 2.21 µM	< 0.001	0.0332	< 0.001	1.96 µM and 1.69 µM		1.74	< 0.001	1.49 µM and 1.46 µM	< 0.001	< 0.001
Cn1cc(C2=C(c3cccc(N)c3)C(=O)NC2=O)c2ccccc21	13.7	> 25 µM	18.7	> 25 µM	14	> 25 µM	> 22.4	> 25 µM	4.52	> 25 µM	11.2	> 25	17.4	> 25 µM	20.9	> 25	5.85	> 25 µM	8.86	> 25
Cc1cc(NCCCNc2ccnc3cc(Cl)ccc23)nc(N2CCN(C)CC2)n1	4.76	33.9 µM	2.57	7.07 µM	14.7	38.3 µM	8.14	39.9 µM	2.07	15.8 µM	2.59	14.7	7.76	44 µM	5.9	28.6	3.71	21 µM	1.86	11.7
CC/C(=C(/c1ccc(OCCN(C)C)cc1)c1ccc(OC(=O)CCC(=O)c2c(C)[nH]c(/C=C3\N=C(c4ccc[nH]4)C=C3OC)c2C)cc1)c1ccccc1	3.09	18.9 µM	2.56	10.2 µM	2.19	5.73 µM	3.65	15.4 µM	0.441	2.38 µM	0.435	6.34	2.73	10.3 µM	4.02	18.7	2.57	15.9 µM	2.32	6.37
COC(=O)C1=C(C)NC(C)=C(C(=O)OC)C1/C=C(\Cl)c1ccc(Cl)c(Cl)c1	14	27.5 µM	15.1	32.1 µM	17	30.8 µM	15.5	28.9 µM	11.9	25.3 µM	5.55	31.6	36.1	> 100 µM	16.8	31	12.8	25.5 µM	10.6	40.3
CC(=O)CCc1ccc(OC2OC(COC(=O)c3cc(O)c(O)c(O)c3)C(O)C(O)C2OC(=O)/C=C/c2ccccc2)cc1 (stereo not given)	20.4	44.4 µM	16.8	37.1 µM	18.6	48.2 µM	19	38.6 µM	19.6	44.5 µM	20.7	52.2	21.2	55 µM	17.5	38.6	25.6	75.4 µM	22.6	65.5
O=c1c2c3c(sc2n2c(-c4cc(-c5ccccc5)no4)nnc2n1Cc1ccccc1)CCCC3	22.7	> 100 µM	24.1	> 91.9 µM	20.5	98.9 µM	8.22	87.6 µM	4.94	55.2 µM	3.22	> 37.7	21.4	> 100 µM	36.6	> 100	9.32	> 100 µM	7.01	> 68.1
COc1ccc(-n2cc(-c3cc(OC)c(OC)c(OC)c3)nc2SCc2ccccc2)cc1	> 100	> 100 µM	> 100	> 100 µM	> 100	> 100 µM	> 100	> 100 µM	> 100	> 100 µM	3.63	> 100			> 100	> 100	78.8	> 100 µM	9.43	> 100
Cc1cc(Cl)cc2c(N=Nc3ccccc3[N+](=O)[O-])c(O)[nH]c12		> 100 µM		> 100 µM		> 100 µM		> 100 µM		> 100 µM		> 100				> 100		> 100 µM		> 100
